Experimental data as given in patent US5011947A, “Antihypercholesterolemic alkylene compounds” (Bristol-Myers, priority 1990, dated 1991).
Counter-ions that a name gives are not always drawn.

Each molecule was assayed against T1, rat liver HMG-CoA reductase (Rattus norvegicus, UniProt P51639) (assay: Test A: In Vitro Inhibition of Microsomal HMG-CoA Reductase). Conditions: intact, fully activated microsomal form of rat liver enzyme; [3-14C]-HMG-CoA 0.33 mM; NADPH 3.0 mM; pH 7.2; at least 4 dilutions in duplicate.
T1 construct: from tissue; host or cells: rat liver microsomes
T1 sequence (P51639 1-887): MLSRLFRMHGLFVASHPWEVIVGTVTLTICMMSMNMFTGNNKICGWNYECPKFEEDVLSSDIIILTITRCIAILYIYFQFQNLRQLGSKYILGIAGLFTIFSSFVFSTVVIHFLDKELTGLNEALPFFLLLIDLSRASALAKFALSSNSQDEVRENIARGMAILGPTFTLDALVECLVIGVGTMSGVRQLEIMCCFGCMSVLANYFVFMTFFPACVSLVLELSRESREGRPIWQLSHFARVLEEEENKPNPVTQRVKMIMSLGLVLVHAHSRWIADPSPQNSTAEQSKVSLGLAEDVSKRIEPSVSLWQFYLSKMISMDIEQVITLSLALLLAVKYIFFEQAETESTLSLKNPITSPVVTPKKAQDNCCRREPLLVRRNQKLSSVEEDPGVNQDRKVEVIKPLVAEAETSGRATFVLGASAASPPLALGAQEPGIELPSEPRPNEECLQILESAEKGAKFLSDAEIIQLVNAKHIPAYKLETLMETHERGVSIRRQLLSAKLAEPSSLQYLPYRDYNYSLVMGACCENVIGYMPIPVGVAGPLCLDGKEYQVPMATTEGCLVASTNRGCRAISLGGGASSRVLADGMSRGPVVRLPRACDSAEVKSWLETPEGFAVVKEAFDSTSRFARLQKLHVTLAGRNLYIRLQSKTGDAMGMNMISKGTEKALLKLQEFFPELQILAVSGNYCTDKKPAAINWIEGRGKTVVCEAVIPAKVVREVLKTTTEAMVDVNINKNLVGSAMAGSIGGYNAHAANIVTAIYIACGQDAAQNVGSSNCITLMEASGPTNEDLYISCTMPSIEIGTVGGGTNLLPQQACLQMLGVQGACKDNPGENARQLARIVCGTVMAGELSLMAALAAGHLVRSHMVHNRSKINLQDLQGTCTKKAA
Format: biochemical
Experimental: Test A: In Vitro Inhibition of Microsomal HMG-CoA Reductase:
The intact, fully activated microsomal form of rat liver HMG-CoA reductase (subunit MW ca 100,000 daltons) was prepared as described by Parker, et al., Biochem. Biophys. Res. Commun., 125, 629-635 (1984), and used as the source of enzyme for assays. HMG-CoA reductase activity was determined essentially by the method of Shapiro, et al., Biochem. Biophys. Acta., 370. 369-377 (1974), with modifications as described by Ingebritsen and Gibson, Meth. Enzymol. 71. 486-497 (1981) with the exception that the internal standard ^3 H-mevalonolactone is added after termination of the assay. In this procedure, the enzyme is assayed by measuring the formation of product, ^14 C-mevalonate, from the substrate, [3-^14 C]-HMG-CoA, in the presence of NADPH. The ^14 C-mevalonate is converted to its lactone and isolated by silica thin-layer chromatography (Whatman LK5D, developed in 50:50 benzene:acetone) in the presence of ^3 H-mevalonolactone as an internal standard. Assays were conducted under conditions in which product formation was linear with respect to time and enzyme concentration.
To measure reductase inhibition, test compounds dissolved in water or dimethylsulfoxide and diluted in buffer A (50 mM imidazole-HCl, 250 mM NaCl, 1 mM EDTA, 1 mM EGTA, 5 mM DTT, 20 μM leupeptin, pH =7.2) were incubated with aliquots of microsomes (80-160 μg protein in buffer A) followed by addition of d,l-[3-^14 C]-HMG-CoA (0.33 mM, 2.0 dpm/picomole) and NADPH (3.0 mM). The 50 percent inhibitory concentration IC50) for each compound in Table 1 was calculated from the linear regression line of the percent decrease (from control) in enzyme activity vs. log concentration of inhibitor, determined using at least 4 dilutions of each test compound assayed in duplicate.

IC50	Structure (SMILES)
265 nM	CC(C)C(C=C[C@@H](O)C[C@@H](O)CC(=O)O)=C(c1ccc(F)cc1)c1ccc(F)cc1 (relative stereo) [Example 8, Erythro-9,9-bis(4-fluorophenyl)-3,5-dihydroxy-8-(1-methylethyl)-6,8-nonadienoic acid sodium salt]
1580 nM	O=C(O)C[C@H](O)C[C@H](O)C=CC(=C(c1ccc(F)cc1)c1ccc(F)cc1)C(F)(F)F (relative stereo) [Example 73, Erythro9,9-bis(4-fluorophenyl)-3,5-dihydroxy-8-trifluoromethyl-6,8-nonadienoic acid sodium salt]
450 nM	O=C(O)C[C@H](O)C[C@H](O)C=CC(=C(c1ccc(F)cc1)c1ccc(F)cc1)C1CC1 (relative stereo) [Example 51, Erythro-8-cyclopropyl-9,9-bis(4-fluorophenyl)-3,5-dihydroxy-6,8-nonadienoicacid sodium salt]
500 nM	CC(C)(C)C(C=C[C@@H](O)C[C@@H](O)CC(=O)O)=C(c1ccc(F)cc1)c1ccc(F)cc1 (relative stereo) [Example 42, Erythro-9,9-bis(4-fluorophenyl)-3,5-dihydroxy-8-(1,1-dimethylethyl)-6,8-nonadienoic acid sodium salt]
410 nM	CCC(C=C[C@@H](O)C[C@@H](O)CC(=O)O)=C(c1ccc(F)cc1)c1ccc(F)cc1 (relative stereo) [Example 59, Erythro-8-ethyl-9,9-bis(4-fluorophenyl)-3,5-dihydroxy-6,8-non adienoate sodium salt]

What follows are molecules tested on Isolated Hepatocyte Cholesterol Biosynthesis (assay: Test B: Isolated Hepatocyte Cholesterol Biosynthesis Assay). Conditions: freshly isolated rat hepatocytes, 10 min preincubation, 60 minutes at 37°, pH 7.35, incorporation of 3H or 14C into sterols, read-out: IC50, Inhibition of Isolated Hepatocyte Cholesterol Biosynthesis.
Format: cell-based, male Wistar rats
Experimental: Test B: Isolated Hepatocyte Cholesterol Biosynthesis Assay:
Intact parenchymal hepatocytes were isolated from male Wistar rats (180-280 g) fed cholestyramine containing or normal diet, using the collagenase perfusion method essentially as described by Seglen, in Methods in Cell Biology (D. Prescott, ed.) Vol. 13, pp. 29-83, Academic Press, New York (1976). Cell preparations were used only when viability (trypan blue exclusion) exceeded 90%. Cholesterol biosynthesis was determined as the incorporation by hepatocytes of ^3 H from [^3 H]-water into total (cellular plus medium) 3β-hydroxy sterols as per Ingebritsen, et al., J. Biol. Chem., 254, 9986-9989 (1979). Hepatocyte sterols and lipids were isolated by a modification of the methods described by Kates, in Techniques in Lipidology. (M. Kates, ed.), pp. 349, 360-363, North Holland Publ. Co., Amsterdam, 1972. To isolate sterols, cells are extracted with methanol:chloroform:water (2:1:0.8), the chloroform phase is separated and extracted with benzene to remove traces of water, then dried under nitrogen. The residue is saponified at 75° C. with 0.30 N NaOH in methanol:water (9:1). […] The ^3 H-labelled sterols are quantified by liquid scintillation and corrected for counting efficiency. […]

Structure (SMILES)	IC50
CC(C)C(C=C[C@@H](O)C[C@@H](O)CC(=O)O)=C(c1ccc(F)cc1)c1ccc(F)cc1 (relative stereo) [Example 8, Erythro-9,9-bis(4-fluorophenyl)-3,5-dihydroxy-8-(1-methylethyl)-6,8-nonadienoic acid sodium salt]	27 nM
CC[C@H](C)C(=O)O[C@H]1C[C@@H](C)C=C2C=C[C@H](C)[C@H](CC[C@@H]3C[C@@H](O)CC(=O)O3)[C@H]21 [Mevinolin (Lovastatin), reference compound]	46 ± 26 nM
